# Assay results reported in US4701205A, “Chemical tobacco sucker control” (Chevron Research Company, priority 1986, dated 1987).
# Where two headings read alike, the source gives them in different places.
# Key:
# [1] = system: tobacco suckers (axillary buds), Var. 12 × L8; test: whole plant or invertebrate; type: in vivo, Nicotiana tabacum; conditions: for inhibition at 200 µg/mL / inhibition at 400 µg/mL / inhibition at 800 µg/mL: Nicotiana tabacum, read-out: Percent Bud Inhibition Top Two Nodes; for Mean # of Nodes with Secondary Suckers / Mean Sucker Length (cm): Table 3, six weeks after treatment
# Protocol: (§1) Twenty-four hours before treatment, the tobacco plants are "topped", removing the top 15 cm of the plant. Any plants which are tending to lean or bend in the pot were staked, and all pots labeled. Three to five replicates were used per treatment. A 5% wt. stock solution of each test compound dissolved in acetone containing a small amount of non-ionic emulsifier was prepared. The stock solution was appropriately diluted with deionized water containing 0.625 g of emulsifier per liter of water, to the desired spray solution concentration.
# (§2) Plants were sprayed to point of run-off with a pressure atomizer, making sure that the stem, leaf axils, and leaves were all wet thoroughly with the solution. 30 to 35 ml of solution were used per plant. This was checked by recording volume of solution in sprayer reservoir before and after treatment. After spraying, the plants were incubated for 18 to 23 days in a greenhouse maintained at 70°-80° F. using standing water capilliary irrigation. The plants were uniformly fertilized once per week with a standard house plant fertilizer. After the incubation period, the plants were evaluated at various times for sucker control. […] The growth of secondary suckers (buds at lower nodes) when present, were also measured.
# (§3) In some instances, comparisons were also made on the basis of sucker length.
# (§4) The results are reported as an average of the replicates used in each test.
# (§5) In this example, the title compound of Example 1 was tested side-by-side with maleic hydrazide ("C-2") with respect to axillary bud control in two varities of tobacco plants. These tests were conducted following the same general procedure as described in Example 3 hereinabove using the dosage concentrations given in the tables hereinbelow. […]
# [2] = system: tobacco suckers (axillary buds), Var. Glurk; test: Tobacco sucker control, spray to run-off on topped plants, Var. Glurk; type: in vivo, Nicotiana tabacum; conditions: for inhibition at 200 µg/mL / inhibition at 400 µg/mL / inhibition at 800 µg/mL: Nicotiana tabacum, read-out: Percent Bud Inhibition Top Two Nodes; for Mean # of Nodes with Secondary Suckers / Mean Sucker Length (cm): Table 3, six weeks after treatment
# Protocol: In this example, the title compound of Example 1 (i.e., 2-[1-(3-trans-chloroallyloxyamino)ethylidene]-5-(2-ethylthiopropyl)cyclohexane-1,3-dione was tested side-by-side with 2-[1-(3-trans-chloroallyloxyamino)butylidene]-5-(2-ethylthio-propyl)-cyclohexane-1,3-dione for their ability to control (retard or prevent) lateral axillary buds in tobacco plants.
# as §1, §2, §3, §4, §5
# [3] = system: tobacco suckers (axillary buds); test: Tobacco sucker control, foliar paint (expanded leaves only); type: in vivo; conditions: for inhibition at 400 µg/mL: Nicotiana tabacum, foliar, read-out: Percent Bud Inhibition Top Three Nodes
# Protocol: as §1
# (§6) Plants were sprayed to point of run-off with a pressure atomizer, making sure that the stem, leaf axils, and leaves were all wet thoroughly with the solution. 30 to 35 ml of solution were used per plant. This was checked by recording volume of solution in sprayer reservoir before and after treatment. After spraying, the plants were incubated for 18 to 23 days in a greenhouse maintained at 70°-80° F. using standing water capilliary irrigation. The plants were uniformly fertilized once per week with a standard house plant fertilizer. After the incubation period, the plants were evaluated at various times for sucker control. To make this evaluation, the axillary buds at the top three nodes (primary suckers) of each plant were compared to those of the check, and a visual estimation of percent inhibition was made wherein 0=no inhibition of axillary buds as compared with check and 100=no axillary buds at top three nodes. The growth of secondary suckers (buds at lower nodes) when present, were also measured.
# (§7) In this example, the title compound of Example 1 was tested side-by-side with maleic hydrazide for tobacco sucker control (inhibition), when applied as a soil drench and also when applied only to the leaves of the plant. The same general procedure as described in Example 3 was used with the exception that the test compound was applied only to the expanded leaves for foliage treatment (foliar paint) and the compound was drenched only on the soil in the pot for soil drench treatment. The average results of these tests are given in the following table, wherein 0=no inhibition and 100=complete inhibition, i.e., no axillary buds.
# [4] = system: tobacco suckers (axillary buds); test: Tobacco sucker control, soil drench treatment; type: in vivo; conditions: for inhibition at 400 µg/mL: Nicotiana tabacum, soil, read-out: Percent Bud Inhibition Top Three Nodes
# Protocol: as §1, §6, §7
# [5] = Soil Drench, 400 mg/l, six weeks after treatment
smiles,measurement,setting,value
"O=c1ccc(=O)[nH][nH]1 [Compound C-2, maleic hydrazide]",inhibition at 200 µg/mL,[1]; 504 h,0%
same,inhibition at 400 µg/mL,[1]; 504 h,23%
same,inhibition at 800 µg/mL,[1]; 504 h,95%
same,inhibition at 200 µg/mL,[1]; 1008 h,12.7%
same,inhibition at 400 µg/mL,[1]; 1008 h,54.1%
same,inhibition at 800 µg/mL,[1]; 1008 h,100%
same,Mean # of Nodes with Secondary Suckers,[1]; 200 mg/l spray,0.3
same,Mean Sucker Length (cm),[1]; 200 mg/l spray,3.0 cm
same,Mean # of Nodes with Secondary Suckers,[1]; 400 mg/l spray,1.3
same,Mean Sucker Length (cm),[1]; 400 mg/l spray,76.8 cm
same,Mean # of Nodes with Secondary Suckers,[1]; 800 mg/l spray,5.3
same,Mean Sucker Length (cm),[1]; 800 mg/l spray,25.8 cm
same,inhibition at 200 µg/mL,[2]; 504 h,10%
same,inhibition at 400 µg/mL,[2]; 504 h,88%
same,inhibition at 800 µg/mL,[2]; 504 h,93%
same,inhibition at 200 µg/mL,[2]; 1008 h,31.1%
same,inhibition at 400 µg/mL,[2]; 1008 h,100%
same,inhibition at 800 µg/mL,[2]; 1008 h,100%
same,Mean # of Nodes with Secondary Suckers,[2]; 200 mg/l spray,0
same,Mean Sucker Length (cm),[2]; 200 mg/l spray,0 cm
same,Mean # of Nodes with Secondary Suckers,[2]; 400 mg/l spray,1.5
same,Mean Sucker Length (cm),[2]; 400 mg/l spray,51.0 cm
same,Mean # of Nodes with Secondary Suckers,[2]; 800 mg/l spray,2.5
same,Mean Sucker Length (cm),[2]; 800 mg/l spray,31.0 cm
same,inhibition at 400 µg/mL,[3]; 504 h,15%
same,inhibition at 400 µg/mL,[3]; 1008 h,0%
same,"Sucker control when applied only to the leaves (systemic action), in words",[3]; applied only to the leaves of the tobacco plant,does not translocate effectively
same,inhibition at 400 µg/mL,[4]; 504 h,79%
same,inhibition at 400 µg/mL,[4]; 1008 h,84%
same,Observation on new growth (footnote b),[4]; [5],new growth deformedstrap shaped leaves
same,Observation on suckers at basal nodes (footnote a),[4]; [5],some suckers appearing at basal nodes
same,"Sucker control when applied as a soil drench (systemic action), in words",[4]; applied as a soil drench,operates sytemically
